Columns and labels:
Assay in all cases: relative viability (nuclei count vs DMSO), 5 days (fraction); higher = more cells survive
Selumetinib + Pemetrexed = compound: Cn1cnc2c(F)c(Nc3ccc(Br)cc3Cl)c(C(=O)NOCCO)cc21 [Selumetinib] + Nc1nc2[nH]cc(CCc3ccc(C(=O)N[C@@H](CCC(=O)O)C(=O)O)cc3)c2c(=O)[nH]1 [Pemetrexed] (partner 0.2 µM)
In short: (§1)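 Lung cancer cell lines in 1536-well plates were dosed by pin tool the day after seeding, either with one drug alone or with a fixed anchor-drug dose plus five library-drug doses (not always all listed) in √10 steps. After 5 days, cells were fixed and their nuclei stained in one step (final 0.05% Triton X-100, 1% formaldehyde, 1 ug/ml Hoechst), then counted on 4× images. Relative viability is the nuclei count in treated wells divided by that in vehicle wells. Values are medians of duplicate plates.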

Venetoclax = compound: CC1(C)CCC(CN2CCN(c3ccc(C(=O)NS(=O)(=O)c4ccc(NCC5CCOCC5)c([N+](=O)[O-])c4)c(Oc4cnc5[nH]ccc5c4)c3)CC2)=C(c2ccc(Cl)cc2)C1 [Venetoclax]
In short: (§2)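 Lung cancer cell lines in 1536-well plates were kept overnight at 37 °C, then pinned with five library-drug doses (not always all listed) spaced by √10 on vehicle-anchored plates. After 5 days without medium change, cells were fixed, permeabilised and Hoechst-stained in one step, imaged at 4×, and nuclei were counted with MetaXpress. Viability is treated-well nuclei divided by vehicle-well nuclei, taken as the median over plates. Plates passed only with control CV below 25% and at least one doubling.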

Selumetinib = compound: Cn1cnc2c(F)c(Nc3ccc(Br)cc3Cl)c(C(=O)NOCCO)cc21 [Selumetinib]
In short: as §2

Venetoclax + Alpelisib = compound: CC1(C)CCC(CN2CCN(c3ccc(C(=O)NS(=O)(=O)c4ccc(NCC5CCOCC5)c([N+](=O)[O-])c4)c(Oc4cnc5[nH]ccc5c4)c3)CC2)=C(c2ccc(Cl)cc2)C1 [Venetoclax] + Cc1nc(NC(=O)N2CCC[C@H]2C(N)=O)sc1-c1ccnc(C(C)(C)C(F)(F)F)c1 [Alpelisib] (partner 2 µM)
In short: as §1

Cell Line	relative viability (Selumetinib + Pemetrexed; first compound 0.02 µM)	relative viability (Selumetinib + Pemetrexed; first compound 0.06325 µM)	relative viability (Selumetinib + Pemetrexed; first compound 0.2 µM)	relative viability (Selumetinib + Pemetrexed; first compound 0.6325 µM)	relative viability (Venetoclax; 0.01 µM)	relative viability (Venetoclax; 0.03162 µM)	relative viability (Venetoclax; 0.1 µM)	relative viability (Venetoclax; 0.3162 µM)	relative viability (Venetoclax; 1 µM)	relative viability (Selumetinib; 0.02 µM)	relative viability (Selumetinib; 0.06325 µM)	relative viability (Selumetinib; 0.2 µM)	relative viability (Selumetinib; 0.6325 µM)	relative viability (Venetoclax + Alpelisib; first compound 0.01 µM)	relative viability (Venetoclax + Alpelisib; first compound 0.03162 µM)	relative viability (Venetoclax + Alpelisib; first compound 0.1 µM)	relative viability (Venetoclax + Alpelisib; first compound 0.3162 µM)	relative viability (Venetoclax + Alpelisib; first compound 1 µM)
NCI-H1650	0.304	0.338	0.331	0.295	0.903	1.02	0.815	1.05	0.768	0.857	0.796	0.837	0.795					
HARA	0.24	0.179	0.224	0.217	0.903	1.08	0.926	1.06	0.993	0.903	0.819	0.824	0.718	0.728	0.822	0.787	0.891	0.787
Calu-6					1.03	1.06	0.985	0.991	0.973	1.04	0.777	0.677	0.478	0.946	0.917	0.98	1.02	0.998
NCI-H1975	0.288	0.309	0.302	0.283	0.99	0.935	0.889	0.939	0.884	0.952	0.958	0.939	0.663	0.673	0.703	0.609	0.628	0.543
SK-MES-1	0.875	0.746	0.737	0.461	0.961	1.05	0.993	1	0.902	0.921	0.885	0.698	0.527	0.857	0.898	0.887	0.788	0.831
NCI-H1666	0.811	0.775	0.765	0.755	0.915	1.02	0.966	0.933	1.01	0.917	0.94	0.878	0.875	0.8	0.89	1.13	0.971	1.04
NCI-H2228	0.375	0.394	0.333	0.33	0.942	1.03	0.86	0.891	0.965	0.898	0.958	0.943	0.797	0.696	0.842	0.698	0.628	0.757
HCC-44	0.635	0.748	0.684	0.75	0.935	0.955	0.983	0.974	0.929	1	1.01	1.04	1.1	0.795	0.745	0.64	0.754	0.705
PC-14	0.123	0.114	0.107	0.127	1	1.08	1.03	0.989	0.818	0.931	0.932	0.935	0.844	0.882	0.931	1.05	0.952	0.776
NCI-H1299					1.02	1.03	1.01	1.01	0.949	1.04	1.03	1.02	0.889	1.02	1.03	1.06	1.04	1.03
EBC-1					0.961	1.05	0.961	0.926	0.894	0.959	0.828	0.759	0.523	0.815	0.869	0.806	0.831	0.875
NCI-H1623					0.951	1.02	0.96	1.01	1.02	0.85	0.83	0.79	0.714					
NCI-H2342	0.778	0.7	0.758	0.839	1	0.984	1.03	1	0.967	0.888	0.896	0.943	0.946					
SW 900	0.474	0.449	0.454	0.441	0.795	0.954	0.716	0.878	0.836	0.805	0.776	0.79	0.809					
IA-LM					0.813	1.05	0.886	0.915	0.886	0.776	0.442	0.246	0.186	0.614	0.726	0.892	0.61	0.604
NCI-H727					1.17	0.993	0.848	0.953	0.827	0.5	0.418	0.352	0.385	0.553	0.608	0.525	0.558	0.571
NCI-H522	0.962	0.942	1	0.783	0.955	1.02	0.976	0.988	0.982	0.896	0.957	1.02	0.927					
A549					0.984	0.99	0.994	0.969	0.937	0.864	0.669	0.656	0.449	0.755	0.706	0.868	0.85	0.716
NCI-H1648		0.838	0.956	0.904	0.661	0.966	0.94	0.822	0.791	0.729	0.961	0.904	0.797					
ChaGo-K-1	0.258	0.258	0.275	0.256	1.06	1.16	0.888	1.01	0.99	0.999	0.939	0.946	0.929					
ABC-1					1.11	0.981	0.974	0.938	0.897	0.885	0.757	0.875	0.841	0.933	0.996	0.853	0.967	1.01
